Data taken from PMC9841532, “Exploring the Effect of Halogenation in a Series of Potent and Selective A2B Adenosine Receptor Antagonists” (Journal of Medicinal Chemistry, 2022).
Like-named read-outs stand apart in the source and are kept apart here.

How the values were obtained:
[1] = molecular target: T1, hA2AAR (Homo sapiens, UniProt P29274); experiment: Radioligand binding competition, [3H]ZM241385, membranes from HeLa-A2A cells; settings: for % at 1 μM hA2A (percentage displacement of specific binding): [3H]ZM241385, human HeLa cells, n = 2
T1 construct: expressed in transfected cells; host or cells: HeLa (HeLa-A2A) cell membranes
T1 sequence (P29274 whole entry): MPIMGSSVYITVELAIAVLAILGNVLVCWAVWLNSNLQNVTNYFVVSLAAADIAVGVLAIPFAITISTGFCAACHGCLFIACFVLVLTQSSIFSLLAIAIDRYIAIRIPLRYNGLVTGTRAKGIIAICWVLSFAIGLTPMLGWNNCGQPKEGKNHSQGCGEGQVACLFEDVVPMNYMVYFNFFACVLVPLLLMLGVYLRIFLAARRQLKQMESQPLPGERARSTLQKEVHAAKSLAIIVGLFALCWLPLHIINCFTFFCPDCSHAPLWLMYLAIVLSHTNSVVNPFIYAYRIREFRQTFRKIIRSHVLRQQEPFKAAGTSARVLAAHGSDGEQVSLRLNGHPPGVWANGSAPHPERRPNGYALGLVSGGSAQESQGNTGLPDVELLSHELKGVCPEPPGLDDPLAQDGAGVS
Protocol: (§1) All ligands reported in Tables 1–5 were obtained and tested as racemic mixtures. The whole set was evaluated in silico with a combination of a Rdkit[37] PAINS filter and Instant JChem from Chemaxon (https://www.chemaxon.com), to rule out the possibility that these ligands can be promiscuous pan-assay interference compounds (PAINS) and to assess their bioavailability, respectively. […] The stereoisomers of selected compounds were obtained by chiral resolution and tested at the four human AR subtypes in their enantiopure forms (Table 6).
(§2) A brief description is given below. […] Non-specific binding was determined in the presence of 10 μM R-PIA. The reaction mixture was incubated at 25 °C for 60 min. […] The reaction mixture was incubated at 25 °C for 30 min. […] The reaction mixture was incubated at 25 °C for 30 min. […] Non-specific binding was determined in the presence of 100 μM R-PIA. […] After the incubation time, membranes were washed and filtered and radioactivity was detected in a MicroBeta TriLux reader (PerkinElmer).

[2] = molecular target: T2, hA2BAR (Homo sapiens, UniProt P29275); experiment: Radioligand binding competition, [3H]DPCPX, membranes from HEK-293-A2B cells; design: Exp. dG: unit not given here; settings: for Ki: read-out: Ki hA2B; for % at 1 μM hA2B (percentage displacement of specific binding): [3H]DPCPX, human HEK-293 cells, n = 2; for Exp. dG: experimental binding free energy, Supplementary Table S3, unit not given (errors in kcal/mol)
T2 construct: host or cells: HEK-293 (HEK-293-A2B) cell membranes
T2 sequence (P29275 1-332): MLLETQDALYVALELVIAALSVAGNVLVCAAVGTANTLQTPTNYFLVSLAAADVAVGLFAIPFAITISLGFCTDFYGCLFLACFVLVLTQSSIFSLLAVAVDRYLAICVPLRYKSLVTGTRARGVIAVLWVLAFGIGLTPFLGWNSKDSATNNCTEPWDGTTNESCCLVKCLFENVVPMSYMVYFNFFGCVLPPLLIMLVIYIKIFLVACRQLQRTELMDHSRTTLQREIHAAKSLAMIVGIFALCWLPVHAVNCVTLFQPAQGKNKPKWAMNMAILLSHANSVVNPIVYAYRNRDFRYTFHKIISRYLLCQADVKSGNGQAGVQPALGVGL
Protocol: as §1, §2

[3] = molecular target: T3, hA3AR (Homo sapiens, UniProt P0DMS8); experiment: Radioligand binding competition, [3H]NECA, membranes from HeLa-A3 cells; settings: 1 μM, [3H]NECA, human HeLa cells, n = 2
T3 construct: expressed in transfected cells; host or cells: HeLa (HeLa-A3) cell membranes
T3 sequence (P0DMS8 1-318): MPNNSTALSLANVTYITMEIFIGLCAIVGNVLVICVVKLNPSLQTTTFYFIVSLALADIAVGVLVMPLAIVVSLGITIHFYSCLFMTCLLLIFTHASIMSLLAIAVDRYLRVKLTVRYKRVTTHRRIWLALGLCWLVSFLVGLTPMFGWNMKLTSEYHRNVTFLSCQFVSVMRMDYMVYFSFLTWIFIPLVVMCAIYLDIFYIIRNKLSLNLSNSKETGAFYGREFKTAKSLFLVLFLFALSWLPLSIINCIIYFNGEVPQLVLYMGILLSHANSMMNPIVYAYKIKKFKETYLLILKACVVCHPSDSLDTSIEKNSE
Protocol: as §1, §2

[4] = molecular target: T4, hA1AR (Homo sapiens, UniProt P30542); experiment: Radioligand binding competition, [3H]DPCPX, membranes from CHO-A1 cells; settings: 1 μM, [3H]DPCPX, human CHO cells, n = 2
T4 sequence (P30542 1-326): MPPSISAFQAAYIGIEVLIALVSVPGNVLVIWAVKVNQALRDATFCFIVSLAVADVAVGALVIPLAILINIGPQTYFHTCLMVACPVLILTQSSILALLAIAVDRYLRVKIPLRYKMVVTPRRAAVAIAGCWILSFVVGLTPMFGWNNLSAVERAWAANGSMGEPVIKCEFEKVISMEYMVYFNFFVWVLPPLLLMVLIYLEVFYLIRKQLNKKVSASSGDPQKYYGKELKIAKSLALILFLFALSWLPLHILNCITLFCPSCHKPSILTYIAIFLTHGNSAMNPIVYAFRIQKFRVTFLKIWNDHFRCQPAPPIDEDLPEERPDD
Protocol: as §1, §2

[5] = displacement of specific [3H]DPCPX binding in human HEK-293 cells, n = 3

| Compound | % at 1 μM hA2A (percentage displacement of specific binding) [1] | Ki [2, 5] | Ki [2] | % at 1 μM hA3 (percentage displacement of specific binding) [3] | % at 1 μM hA1 (percentage displacement of specific binding) [4] | % at 1 μM hA2B (percentage displacement of specific binding) [2] | Exp. dG [2] | Ki ([1]; displacement of specific [3H]ZM241385 binding in human HeLa cells, n = 3, read-out: Ki hA2A) |
| --- | --- | --- | --- | --- | --- | --- | --- | --- |
| CCOC(=O)C1=C(C)Nc2nc3ccc(Br)cc3n2C1c1ccoc1 (stereo not shown) [15s] | 1% | 0.318 ± 0.006 µM | ~0.045 µM | 19% | 10% |  |  |  |
| CC1=C(C(=O)OC(C)C)C(c2ccoc2)n2c(nc3ccc(Br)cc32)N1 (stereo not shown) [15t] | 3% |  |  | 12% | 11% | 26% |  |  |
| CCOC(=O)C1=C(C)Nc2nc3ccc(Br)cc3n2C1c1cccs1 (stereo not shown) [15u] | 5% |  |  | 4% | 1% | 1% |  |  |
| CC1=C(C(=O)OC(C)C)C(c2cccs2)n2c(nc3ccc(Br)cc32)N1 (stereo not shown) [15v] | 6% |  |  | 8% | 1% | 11% |  |  |
| CCOC(=O)C1=C(C)Nc2nc3ccc(Br)cc3n2C1c1ccsc1 (stereo not shown) [15w] | 3% |  |  | 3% | 4% | 43% |  |  |
| CC1=C(C(=O)OC(C)C)C(c2ccsc2)n2c(nc3ccc(Br)cc32)N1 (stereo not shown) [15x] | 1% |  |  | 1% | 1% | 10% |  |  |
| CCOC(=O)C1=C(C)Nc2nc3cc(F)ccc3n2C1c1ccco1 (stereo not shown) [16a] | 29% | 0.0066 ± 0.001 µM | < 0.01 µM | 2% | 10% |  | -11.15 |  |
| CCOC(=O)C1=C(C)Nc2nc3cc(F)ccc3n2C1c1ccoc1 (stereo not shown) [16c] | 21% | 0.0137 ± 0.0009 µM |  | 2% | 29% |  | -10.72 |  |
| CC1=C(C(=O)OC(C)C)C(c2ccoc2)n2c(nc3cc(F)ccc32)N1 (stereo not shown) [16d] | 31% | 0.0086 ± 0.0005 µM | < 0.01 µM | 4% | 14% |  | -11 |  |
| CCOC(=O)C1=C(C)Nc2nc3cc(F)ccc3n2C1c1cccs1 (stereo not shown) [16e] | 3% | 0.724 ± 0.008 µM |  | 3% | 1% |  |  |  |
| CC1=C(C(=O)OC(C)C)C(c2cccs2)n2c(nc3cc(F)ccc32)N1 (stereo not shown) [16f] | 1% | 0.668 ± 0.006 µM |  | 7% | 2% |  | -8.419 |  |
| CCOC(=O)C1=C(C)Nc2nc3cc(F)ccc3n2C1c1ccsc1 (stereo not shown) [16g] | 1% | 0.187 ± 0.002 µM |  | 3% | 1% |  | -9.172 |  |
| CC1=C(C(=O)OC(C)C)C(c2ccsc2)n2c(nc3cc(F)ccc32)N1 (stereo not shown) [16h] | 1% | 0.0755 ± 0.0032 µM |  | 5% | 2% |  | -9.71 |  |
| CCOC(=O)C1=C(C)Nc2nc3cc(Cl)ccc3n2C1c1ccco1 (stereo not shown) [16i] | 10% | 0.00842 ± 0.0014 µM | < 0.01 µM | 4% | 23% |  | -11.01 |  |
| CCOC(=O)C1=C(C)Nc2nc3cc(Cl)ccc3n2C1c1ccoc1 (stereo not shown) [16k] | 43% | 0.00721 ± 0.0004 µM | < 0.01 µM | 4% | 31% |  | -11.1 |  |
| CCOC(=O)C1=C(C)Nc2nc3cc(Cl)ccc3n2C1c1cccs1 (stereo not shown) [16m] | 2% |  |  | 1% | 3% | 41% |  |  |
| CC1=C(C(=O)OC(C)C)C(c2cccs2)n2c(nc3cc(Cl)ccc32)N1 (stereo not shown) [16n] | 2% | 0.837 ± 0.011 µM |  | 1% | 2% |  | -8.286 |  |
| CCOC(=O)C1=C(C)Nc2nc3cc(Cl)ccc3n2C1c1ccsc1 (stereo not shown) [16o] | 7% | 0.911 ± 0.014 µM |  | 8% | 2% |  | -8.235 |  |
| CC1=C(C(=O)OC(C)C)C(c2ccsc2)n2c(nc3cc(Cl)ccc32)N1 (stereo not shown) [16p] | 7% | 0.165 ± 0.009 µM |  | 4% | 7% |  |  |  |
| CCOC(=O)C1=C(C)Nc2nc3cc(Br)ccc3n2C1c1ccco1 (stereo not shown) [16q] | 29% | 0.0269 ± 0.0008 µM |  | 33% | 18% |  |  |  |
| CC1=C(C(=O)OC(C)C)C(c2ccoc2)n2c(nc3cc(Br)ccc32)N1 (stereo not shown) [16t] |  | 0.0082 ± 0.0011 µM | < 0.01 µM | 2% | 2% |  |  | 0.509 ± 0.006 µM |
